For 13 compounds, IC50 results are on record in US20240218022A1, “ANTI-VISTA MACROCYCLIC PEPTIDES AND COMPOSITIONS” (BRISTOL-MYERS SQUIBB COMPANY, priority 2022, published 2024).

Where two headings read alike, the source gives them in different places. Starred links: 1 amine or outer side, 2 acyl side, 3 side chain; linkers in the order of their positions; H or OH if unused. Positions of bridges follow the written chain, without caps; N, C: chain ends. Non-standard residues stand in square brackets, D forms with d. Residues, ends and D or L forms follow the SMILES beside them. Phe(3,4-(OMe)2) = COc1ccc(C[C@H](N)C(=O)O)cc1OC; Phe(4-COOH) = N[C@@H](Cc1ccc(C(=O)O)cc1)C(=O)O; Phe(3-CN) = N#Cc1cccc(C[C@H](N)C(=O)O)c1; γGlu = O=C(O)[C@H](CCC(=O)[*:2])N[*:1]; 2Nal = N[C@@H](Cc1ccc2ccccc2c1)C(=O)O; βAsp = O=C(O)[C@H](CC(=O)[*:2])N[*:1]; Cit = NC(=O)NCCC[C@H](N)C(=O)O; Ahp(2) = CCCCC[C@H](N)C(=O)O; NMeNle = CCCC[C@H](NC)C(=O)O; Tle = CC(C)(C)[C@H](N)C(=O)O; NMeS = CN[C@@H](CO)C(=O)O; Pip = O=C(O)[C@@H]1CCCCN1; NHexGly = CCCCCCNCC(=O)O; Nle = CCCC[C@H](N)C(=O)O; Orn = NCCC[C@H](N)C(=O)O; Aun = NCCCCCCCCCCC(=O)O; AEEA = NCCOCCOCC(=O)O

The assay deals with T1, mouse VISTA (mVISTA) (Mus musculus, UniProt Q9D659).
T1 construct: expressed in transfected cells; host or cells: Human embryonic kidney 293T cells
T1 sequence (Q9D659 33-308): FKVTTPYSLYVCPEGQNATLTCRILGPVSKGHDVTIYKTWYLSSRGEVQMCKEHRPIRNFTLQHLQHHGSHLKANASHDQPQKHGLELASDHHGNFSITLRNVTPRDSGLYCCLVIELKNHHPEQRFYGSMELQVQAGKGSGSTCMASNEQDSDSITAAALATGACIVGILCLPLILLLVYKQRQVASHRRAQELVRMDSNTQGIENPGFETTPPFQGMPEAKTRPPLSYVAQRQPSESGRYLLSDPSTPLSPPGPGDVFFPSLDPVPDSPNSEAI
Nature of the assay: Cell-Based Binding High-Content Assay For mVISTA (HC CBA mVISTA). In a few lines:
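mVISTA-293T, 4,000 cells/well; cpd ± washout step; biotin-peptide 2 nM final, 30 min RT; SA-Alexa 647 30 min; formaldehyde/Hoechst fix; HCS imaging; 4PL IC50.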

The mark [1] stands for this setting: cell-based binding high-content assay, mVISTA, read-out: HC CBA miPr ISTA IC50.
[2] abbreviates: cell-based binding high-content assay, read-out: HC CBA miPrISTA IC50.

In general, IC50 refers to the concentration at which inhibition is half-maximal. On to `CCCCCCN1CC(=O)N[C@@H](Cc2ccc(O)cc2)C(=O)N[C@@H](CC(C)C)C(=O)N[C@@H](CC(N)=O)C(=O)N[C@@H](CCCNC(=N)N)C(=O)N[C@@H](CC(C)C)C(=O)N[C@@H](CCCCC)C(=O)N2CCC[C@H]2C(=O)N[C@@H](C(C)C)C(=O)N[C@@H](C(C)C)C(=O)N[C@H](C(=O)NCCOCCOCC(=O)N[C@@H](CCC(=O)NCCOCCOCC(=O)NCCCCCCCCCCC(=O)O)C(=O)O)CSCC(=O)N[C@@H](Cc2ccccc2)C(=O)N[C@@H](Cc2ccc(O)cc2)C(=O)N[C@@H](CC(=O)O)C1=O` [compound 2217] ({CH2CO}-FYD[NHexGly]YLNRL[Ahp(2)]PVVC[AEEA][γGlu][AEEA][Aun]-OH; thioether N-14), for which the IC50 (read-out: HC CBA mVISTA IC50) is 13.1 nM.
Turning to `CCCCCCN1CC(=O)N[C@@H](Cc2ccc(O)cc2)C(=O)N[C@@H](CC(C)C)C(=O)N[C@@H](CC(N)=O)C(=O)N[C@@H](CCCNC(=N)N)C(=O)N(C)[C@@H](CCCC)C(=O)N[C@@H](CCCCC)C(=O)N2CCC[C@H]2C(=O)N[C@@H](C(C)(C)C)C(=O)N[C@@H](CO)C(=O)N[C@H](C(=O)N[C@@H](CC(=O)NCCOCCOCC(=O)N[C@@H](CC(=O)O)C(=O)NCCOCCOCC(=O)NCCCCCCCCCCC(=O)O)C(=O)O)CSCC(=O)N[C@@H](Cc2ccc(C(=O)O)cc2)C(=O)N[C@@H](Cc2ccc(O)cc2)C(=O)N[C@@H](CC(=O)O)C1=O` [compound 2050] ({CH2CO}-[Phe(4-COOH)]YD[NHexGly]YLNR[NMeNle][Ahp(2)]P[Tle]SC[βAsp][AEEA]D[AEEA][Aun]-OH; thioether N-14), under setting [1], the half-inhibitory concentration (IC50) came to 24.1 nM.
Turning to `CCCCCCN1CC(=O)N[C@@H](Cc2ccc(O)cc2)C(=O)N[C@@H](CC(C)C)C(=O)N[C@@H](CC(N)=O)C(=O)N[C@@H](CCCNC(=N)N)C(=O)N(C)[C@@H](CCCC)C(=O)N[C@@H](CCCCC)C(=O)N2CCC[C@H]2C(=O)N[C@@H](C(C)(C)C)C(=O)N[C@@H](CO)C(=O)N[C@H](C(=O)NCC(N)=O)CSCC(=O)N[C@@H](Cc2ccccc2)C(=O)N[C@@H](Cc2cccc(C#N)c2)C(=O)N[C@@H](CC(=O)O)C1=O` [compound 1340] ({CH2CO}-F[Phe(3-CN)]D[NHexGly]YLNR[NMeNle][Ahp(2)]P[Tle]SCG-NH2; thioether N-14), under “read-out: HC CBA mVISTA IC50”, the IC50 was 36.8 nM.
With `CCCCCCN1CC(=O)N[C@@H](Cc2ccc(O)cc2)C(=O)N[C@@H](CC(C)C)C(=O)N[C@@H](CC(N)=O)C(=O)N[C@@H](CCCNC(=N)N)C(=O)N[C@@H](CC(C)C)C(=O)N[C@@H](CCCCC)C(=O)N2CCC[C@H]2C(=O)N[C@@H](C(C)C)C(=O)N[C@@H](C(C)C)C(=O)N[C@H](C(=O)NCCOCCOCC(=O)N[C@@H](CC(=O)O)C(=O)NCCOCCOCC(=O)NCCCCCCCCCCC(=O)O)CSCC(=O)N[C@@H](Cc2ccccc2)C(=O)N[C@@H](Cc2cccc(C)c2)C(=O)N[C@@H](CC(=O)O)C1=O` (stereo in doubt) [compound 2289], the concentration for half-maximal inhibition (IC50) under setting [2] was 15.7 nM.
In the case of `CCCCCCN1CC(=O)N[C@@H](Cc2ccc(O)cc2)C(=O)N[C@@H](CC(C)C)C(=O)N[C@@H](CC(N)=O)C(=O)N[C@@H](CCCNC(=N)N)C(=O)N(C)[C@@H](CO)C(=O)N[C@@H](CCCCC)C(=O)N2CCC[C@H]2C(=O)N[C@@H](C(C)(C)C)C(=O)N[C@@H](CC(=O)O)C(=O)N[C@H](C(=O)N[C@@H](CC(=O)NCCOCCOCC(=O)N[C@@H](CC(=O)O)C(=O)NCCOCCOCC(=O)NCCCCCCCCCCC(=O)O)C(=O)O)CSCC(=O)N[C@@H](Cc2ccc(C(=O)O)cc2)C(=O)N[C@@H](Cc2ccc(O)cc2)C(=O)N[C@@H](CC(=O)O)C1=O` [compound 2048] ({CH2CO}-[Phe(4-COOH)]YD[NHexGly]YLNR[NMeS][Ahp(2)]P[Tle]DC[βAsp][AEEA]D[AEEA][Aun]-OH; thioether N-14), the IC50 under setting [1] was 35 nM.
`CCCCCCN1CC(=O)N[C@@H](Cc2ccc(O)cc2)C(=O)N[C@@H](CCCCC)C(=O)N[C@@H](CC(N)=O)C(=O)N[C@@H](CCCN)C(=O)N(C)[C@@H](CCCC)C(=O)N[C@@H](CCCCC)C(=O)N2CCC[C@H]2C(=O)N[C@@H](C(C)(C)C)C(=O)N[C@@H](CC(=O)O)C(=O)N[C@H](C(=O)N[C@@H](CCC(=O)NCCCCCCCCCCC(=O)O)C(=O)O)CSCC(=O)N[C@@H](Cc2ccccc2)C(=O)N[C@@H](Cc2ccc(O)cc2)C(=O)N[C@@H](CC(=O)O)C1=O` [Example 2141] ({CH2CO}-FYD[NHexGly]Y[Ahp(2)]N[Orn][NMeNle][Ahp(2)]P[Tle]DC[γGlu][Aun]-OH; thioether N-14): the IC50 (read-out: HC CBA mVISTA IC50) was determined as 26.5 nM.
`CCCCCCN1CC(=O)N[C@@H](Cc2ccc(O)cc2)C(=O)N[C@@H](CCCC)C(=O)N[C@@H](CC(N)=O)C(=O)N[C@@H](CCCNC(N)=O)C(=O)N(C)[C@@H](CCCC)C(=O)N[C@@H](CCCCC)C(=O)N2CCC[C@H]2C(=O)N[C@@H](C(C)C)C(=O)N[C@@H](CC(=O)O)C(=O)N[C@H](C(=O)NCC(=O)O)CSCC(=O)N[C@@H](Cc2ccccc2)C(=O)N[C@@H](Cc2c[nH]c3ccccc23)C(=O)N[C@@H](CC(=O)O)C1=O` [Example 1387] ({CH2CO}-FWD[NHexGly]Y[Nle]N[Cit][NMeNle][Ahp(2)]PVDCG-OH; thioether N-14): where the note is “read-out: HC CBA mVISTA IC50”, the IC50 came out at 5.3 nM.
Same read-out and setting: the result for `CCCCCCN1CC(=O)N[C@@H](Cc2ccc(O)cc2)C(=O)N[C@@H](CCCC)C(=O)N[C@@H](CC(N)=O)C(=O)N[C@@H](CCCNC(=N)N)C(=O)N(C)[C@@H](CCCC)C(=O)N[C@@H](CCCCC)C(=O)N2CCCC[C@H]2C(=O)N[C@@H](C(C)C)C(=O)N[C@@H](CO)C(=O)N[C@H](C(=O)N[C@@H](CC(=O)NCCOCCOCC(=O)NCCCCCCCCCCC(=O)O)C(=O)O)CSCC(=O)N[C@@H](Cc2ccccc2)C(=O)N[C@@H](Cc2c[nH]c3ccccc23)C(=O)N[C@@H](CC(=O)O)C1=O` [Example 2186] ({CH2CO}-FWD[NHexGly]Y[Nle]NR[NMeNle][Ahp(2)][Pip]VSC[βAsp][AEEA][Aun]-OH; thioether N-14) reads 24.4 nM.
As for `CCCCCCN1CC(=O)N[C@@H](Cc2ccc(O)cc2)C(=O)N[C@@H](C(C)C)C(=O)NCC(=O)N[C@@H](CCCNC(N)=O)C(=O)N[C@@H](CC(C)C)C(=O)N[C@@H](CCCCC)C(=O)N2CCC[C@H]2C(=O)N[C@@H](C(C)C)C(=O)N[C@@H](CC(=O)O)C(=O)N[C@H](C(=O)NCCOCCOCC(=O)N[C@@H](CC(=O)O)C(=O)NCCOCCOCC(=O)NCCCCCCCCCCC(=O)O)CSCC(=O)N[C@@H](Cc2ccc3ccccc3c2)C(=O)N[C@@H](Cc2ccc(O)cc2)C(=O)N[C@@H](CC(=O)O)C1=O` [compound 2308] ({CH2CO}-[2Nal]YD[NHexGly]YVG[Cit]L[Ahp(2)]PVDC[AEEA]D[AEEA][Aun]-OH; thioether N-14), the concentration for half-maximal inhibition (IC50) under setting [2] was 14.6 nM.
For the compound `CCCCCCN1CC(=O)N[C@@H](Cc2ccc(O)cc2)C(=O)N[C@@H](CCCCC)C(=O)N[C@@H](CC(=O)O)C(=O)N[C@@H](CCCNC(=N)N)C(=O)N(C)[C@@H](CCCC)C(=O)N[C@@H](CCCCC)C(=O)N2CCC[C@H]2C(=O)N[C@@H](C(C)C)C(=O)N[C@@H](CC(=O)O)C(=O)N[C@H](C(=O)N[C@H](CC(=O)O)C(N)=O)CSCC(=O)N[C@@H](Cc2ccccc2)C(=O)N[C@@H](Cc2ccc(O)cc2)C(=O)N[C@@H](CC(=O)O)C1=O` [Example 1076] ({CH2CO}-FYD[NHexGly]Y[Ahp(2)]DR[NMeNle][Ahp(2)]PVDC[dD]-NH2; thioether N-14), the half-inhibitory concentration (IC50) (293T cells expressing mouse VISTA, competition with biotinylated peptide (2 nM), read-out: CBA mVISTA IC50) was 21.5 nM.
In the case of `CCCCCCN1CC(=O)N[C@@H](Cc2ccc(O)cc2)C(=O)N[C@@H](C)C(=O)N[C@@H](CC(N)=O)C(=O)N[C@@H](CCCN)C(=O)N(C)[C@@H](CCCC)C(=O)N[C@@H](CCCCC)C(=O)N2CCC[C@H]2C(=O)N[C@@H](C(C)(C)C)C(=O)N[C@@H](CO)C(=O)N[C@H](C(=O)N[C@@H](CC(=O)NCCOCCOCC(=O)N[C@@H](CC(=O)O)C(=O)NCCOCCOCC(=O)NCCCCCCCCCCC(=O)O)C(=O)O)CSCC(=O)N[C@@H](Cc2ccccc2)C(=O)N[C@@H](Cc2ccc(O)cc2)C(=O)N[C@@H](CC(=O)O)C1=O` [compound 2061] ({CH2CO}-FYD[NHexGly]YAN[Orn][NMeNle][Ahp(2)]P[Tle]SC[βAsp][AEEA]D[AEEA][Aun]-OH; thioether N-14), the IC50 under setting [1] stood at 21.5 nM.
As for `CCCCCCN1CC(=O)N[C@@H](Cc2ccc(O)cc2)C(=O)N[C@@H](CC(C)C)C(=O)N[C@@H](CC(N)=O)C(=O)N[C@@H](CCCNC(=N)N)C(=O)N[C@@H](CC(C)C)C(=O)N[C@@H](CCCCC)C(=O)N2CCC[C@H]2C(=O)N[C@@H](C(C)(C)C)C(=O)N[C@@H](C(C)C)C(=O)N[C@H](C(=O)NCCOCCOCC(=O)N[C@@H](CCC(=O)NCCOCCOCC(=O)NCCCCCCCCCCC(=O)O)C(=O)O)CSCC(=O)N[C@@H](Cc2ccccc2)C(=O)N[C@@H](Cc2c[nH]c3ccccc23)C(=O)N[C@@H](CC(=O)O)C1=O` [compound 2231] ({CH2CO}-FWD[NHexGly]YLNRL[Ahp(2)]P[Tle]VC[AEEA][γGlu][AEEA][Aun]-OH; thioether N-14), the IC50 (read-out: HC CBA mVISTA IC50) was 42.5 nM.
In the case of `CCCCCCN1CC(=O)N[C@@H](Cc2ccc(O)cc2)C(=O)N[C@@H](CCCC)C(=O)NCC(=O)N[C@@H](CCCNC(=N)N)C(=O)N[C@@H](CC(C)C)C(=O)N[C@@H](CCCCC)C(=O)N2CCC[C@H]2C(=O)N[C@@H](C(C)C)C(=O)N[C@@H](CC(=O)O)C(=O)N[C@H](C(=O)NCC(=O)O)CSCC(=O)N[C@@H](Cc2ccc(OC)c(OC)c2)C(=O)N[C@@H](Cc2ccc(O)cc2)C(=O)N[C@@H](CC(=O)O)C1=O` [compound 1458] ({CH2CO}-[Phe(3,4-(OMe)2)]YD[NHexGly]Y[Nle]GRL[Ahp(2)]PVDCG-OH; thioether N-14), the half-inhibitory concentration (IC50) (the 20th table, scaffold drawing 23, read-out: HC CBA mVISTA IC50) came out at 33.8 nM.
